From paper PMC3583578 (Oncology Reports, 2012)

Tests used:
[1] = test system: 26S protease (chymotrypsin, trypsin- and caspase-like activities); conditions: three proteolytic activities, dose-dependent; cited from earlier work
[2] = test system: TNFα-induced NF-κB activation; assay: Luciferase-based in cellulo NF-κB reporter assay; type: cell-based, human; conditions: K562 cells after transfection

O=C(/C=C/c1ccccc1)c1ccc(O)cc1 [Chalcone 7, 4′-Hydroxychalcone]
26S protease inhibition activity (in words) [1]: inhibition activity

COc1cccc(/C=C/C(=O)c2ccccc2O)c1OC [Chalcone 16, 2,3-Dimethoxy-2′-hydroxychalcone]
Cytotoxicity at concentrations which inhibited NF-κB activation (in words) [2]: cytotoxic
